Results from patent US7732603B2, “Organic compounds as agents for the treatment of aldosterone mediated conditions” (Novartis AG, priority 2002, dated 2010).
pIC50: −log10 of the molar value.

Tested on: not given
Assay: not given
Conditions: not given

| SMILES | melting point |
| --- | --- |
| N#Cc1ccc(C2C(=O)N(Cc3ccccc3)Cc3cncn32)cc1 (centres unmarked) [Example 3, 4-(7-Benzyl-6-oxo-5,6,7,8-tetrahydro-imidazo[1,5-a]pyrazin-5-yl)-benzonitrile] | 163 to 165 °C |
| N#Cc1ccc(C2(Cc3ccccc3)C(=O)N(Cc3ccccc3)Cc3cncn32)cc1 (centres unmarked) [Example 88, 4-(5,7-Dibenzyl-6-oxo-5,6,7,8-tetrahydro-imidazol[1,5-a]pyrazin-5-yl)-benzonitrile] | 246 to 248 °C |
| Cl.O=C1C(c2cccc(Br)c2)n2cncc2CN1Cc1ccccc1 (centres unmarked) | 249 to 251 °C |
| Cl.O=C1C(c2cccc(Br)c2)n2cncc2CN1Cc1ccc(F)cc1 (centres unmarked) | 246 to 248 °C |
| Cc1cccc(CN2Cc3cncn3C(c3cccc(Br)c3)C2=O)c1.Cl (centres unmarked) | 248 to 249 °C |
| N#Cc1ccc(C2C(=O)N(Cc3ccc(F)cc3)Cc3cncn32)cc1 (centres unmarked) [Example 14, 4-[6-Oxo-7-(4-fluoro-benzyl)-5,6,7,8-tetrahydro-imidazo[1,5-a]pyrazin-5-yl]-benzonitrile] | 132 to 135 °C |
| Cl.N#Cc1ccc(C2C(=O)N(Cc3cccc(C(F)(F)F)c3)Cc3cncn32)cc1 (centres unmarked) | 250 to 252 °C |
| Cl.O=C1C(c2cccc(Br)c2)n2cncc2CN1CCc1ccc(F)cc1 (centres unmarked) | 179 to 180 °C |
| C=CCN1Cc2cncn2C(c2ccc(C#N)cc2)C1=O (centres unmarked) [Example 4, 4-(7-Allyl-6-oxo-5,6,7,8-tetrahydro-imidazo[1,5-a]pyrazin-5-yl)-benzonitrile] | 107 to 109 °C |
| COc1ccc(CN2Cc3cncn3C(c3cccc(C#N)c3)C2=O)cc1.Cl (centres unmarked) | 246 to 248 °C |
| N#Cc1ccc(C2C(=O)N(CC3CC3)Cc3cncn32)cc1 (centres unmarked) [Example 1, 4-(7-Cyclopropylmethyl-6-oxo-5,6,7,8-tetrahydro-imidazo[1,5-a]pyrazin-5-yl)-benzonitrile] | 146 to 147 °C |
| Cl.O=C1C(c2ccc(Br)cc2)n2cncc2CN1Cc1ccc(Cl)cc1 (centres unmarked) | 158 to 159 °C |
| COc1ccc(CN2Cc3cncn3C(c3ccc(-c4ccsc4)cc3)C2=O)cc1 (centres unmarked) [Example 75, 7-(4-Methoxy-benzyl)-5-(4-thiophen3-yl-phenyl)-7,8-dihydro-imidazo[1,5-a]pyrazin-6-one] | 162 to 164 °C |
| Cl.O=C1C(c2ccc(Br)cc2)n2cncc2CN1Cc1ccc(F)cc1 (centres unmarked) | 205 to 207 °C |
| CC1(c2ccc(C#N)cc2)C(=O)N(Cc2ccc(F)cc2)Cc2cncn21 (centres unmarked) [Example 85, 4-[7-(4-Fluoro-benzyl)-5-methyl-6-oxo-5,6,7,8-tetrahydro-imidazo[1,5-a]pyrazin-5-yl]-benzonitrile] | 66 to 70 °C |
| Cl.N#Cc1ccc(C2C(=O)N(Cc3ccc(C(F)(F)F)cc3)Cc3cncn32)cc1 (centres unmarked) | 234 to 236 °C |
| CC(C)N1Cc2cncn2C(c2ccc(C#N)cc2)C1=O (centres unmarked) [Example 6, 4-(7-Isopropyl-6-oxo-5,6,7,8-tetrahydro-imidazo[1,5-a]pyrazin-5-yl)-benzonitrile] | 122 to 124 °C |
| O=C1C(c2cccc(Br)c2)n2cncc2CN1Cc1ccccn1 (centres unmarked) [Example 53, 5-(3-Bromo-phenyl)-7-pyridin-2-ylmethyl-7,8-dihydro-imidazo[1,5-a]pyrazin-6-one] | 52 to 56 °C |

| SMILES | melting point |
| --- | --- |
| C[C@H](c1ccccc1)N1Cc2cncn2C(c2cccc(Br)c2)C1=O (single isomer, unassigned; (+)) [Example 58] | 45 to 50 °C |
| O=C1C(c2cccc(Br)c2)n2cncc2CN1Cc1ccsc1 (centres unmarked) [Example 50, 5-(3-Bromo-phenyl)-7-thiophen-3-ylmethyl-7,8-dihydro-imidazo[1,5-a]pyrazin-6-one] | 43 to 45 °C |
| Cl.O=C1C(c2cccc(Br)c2)n2cncc2CN1Cc1ccc(Cl)cc1 (centres unmarked) | 268 to 270 °C |
| CC1(c2ccc(Br)cc2)C(=O)N(Cc2ccc(F)cc2)Cc2cncn21.Cl (centres unmarked) | 235 to 237 °C |
| COc1ccc(CN2Cc3cncn3C(c3ccc(Br)cc3)C2=O)cc1 (centres unmarked) [Example 21, 5-(4-Bromo-phenyl)-7-(4-methoxy-benzyl)-7,8-dihydro-imidazo[1,5-a]pyrazin-6-one] | 123 to 124 °C |
| C[C@@H](c1ccccc1)N1Cc2cncn2C(c2ccc(Br)cc2)C1=O (single isomer, unassigned; (-)) [Example 61] | 167 to 168 °C |
| Cl.O=C1C(c2cccc(Br)c2)n2cncc2CN1CC1CC1 (centres unmarked) [Example 32, 5-(3-Bromo-phenyl)-7-cyclopropylmethyl-7,8-dihydro-imidazo[1,5-a]pyrazin-6-one hydrochloride] | 249 to 250 °C |
| Cl.O=C1C(c2cccc(Br)c2)n2cncc2CN1CCc1ccc(Cl)cc1 (centres unmarked) | 225 to 226 °C |
| C[C@@H](c1ccccc1)N1Cc2cncn2C(c2cccc(Br)c2)C1=O (single isomer, unassigned; (-)) [Example 59] | 55 to 70 °C |
| N#Cc1ccc(C2C(=O)N(Cc3ccc(Cl)c(Cl)c3)Cc3cncn32)cc1 (centres unmarked) [Example 16] | 175 to 176 °C |
| Cl.N#Cc1cccc(C2C(=O)N(CCc3ccc(F)cc3)Cc3cncn32)c1 (centres unmarked) | 221 to 223 °C |
| CCCN1Cc2cncn2C(c2ccc(C#N)cc2)C1=O (centres unmarked) [Example 5, 4-(6-Oxo-7-propyl-5,6,7,8-tetrahydro-imidazo[1,5-a]pyrazin-5-yl)-benzonitrile] | 97 to 98 °C |
| N#Cc1ccc(C2CC(=O)N(Cc3ccccc3)Cc3cncn32)cc1 (centres unmarked) [Example 92, 4-(8-Benzyl-7-oxo-6,7,8,9-tetrahydro-5H-imidazo[1,5-a][1,4]diazepin-5-yl)-benzonitrile] | 65 °C |
| O=C(O)C(=O)O.O=C1C(c2cccc(Br)c2)n2cncc2CN1C1CCCCC1 (centres unmarked) | 129 to 131 °C |
| Cl.O=C1C(c2cccc(Br)c2)n2cncc2CN1Cc1ccc(C(F)(F)F)cc1 (centres unmarked) | 269 to 271 °C |
| COc1ccc(N2Cc3cncn3C(c3ccc(Br)cc3)C2=O)cc1.Cl (centres unmarked) | 149 to 150 °C |
| Cl.O=C1Cn2cncc2CN1Cc1ccccc1 | 201 to 204 °C |

Molecular target: T1, aldosterone synthase (Rattus norvegicus, UniProt P30099)
T1 construct: The adrenals are decapsulated to obtain the glomerulosa tissue; The tissue is homogenized in a glass homogenizer; from tissue; host or cells: rat adrenal glomerulosa tissue homogenate (900 x g supernatant), sodium-depleted Sprague-Dawley rats
T1 sequence (P30099 35-510): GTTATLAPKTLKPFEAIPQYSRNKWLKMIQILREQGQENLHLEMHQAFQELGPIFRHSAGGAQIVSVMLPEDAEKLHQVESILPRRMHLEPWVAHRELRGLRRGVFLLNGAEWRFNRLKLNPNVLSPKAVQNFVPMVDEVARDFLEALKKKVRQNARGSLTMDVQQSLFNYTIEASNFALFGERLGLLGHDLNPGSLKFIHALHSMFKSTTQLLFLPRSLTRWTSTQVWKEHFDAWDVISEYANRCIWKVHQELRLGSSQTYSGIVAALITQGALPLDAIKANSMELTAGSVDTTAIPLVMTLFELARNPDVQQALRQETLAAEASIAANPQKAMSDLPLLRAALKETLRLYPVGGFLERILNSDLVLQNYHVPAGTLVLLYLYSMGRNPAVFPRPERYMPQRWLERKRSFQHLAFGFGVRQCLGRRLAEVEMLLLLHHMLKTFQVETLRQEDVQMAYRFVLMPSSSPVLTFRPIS
Assay: aldosterone synthase inhibitory activity in vitro (rat adrenal glomerulosa homogenate, conversion of [3H]corticosterone)
Format: biochemical
Conditions: read-out: inhibit the aldosterone synthase activity with an IC50 value
Source text: The aldosterone synthase inhibitory activity in vitro may be determined as follows:
Adult male Sprague-Dawley rats weighing 125-150 g are obtained from Harlan Farms. All animals are caged in pairs and maintained under standard conditions of light and temperature. The animals are placed on a sodium depleted diet (0.01-0.02%) from Harland Teklad, Madison Wis. (cat# TD90228) and maintained on normal drinking water ad libitum. The animals are maintained on this diet for two to four weeks prior to harvesting the adrenal glomerulosa cells. The rats are killed by CO2 inhalation, and the adrenals are immediately removed and placed in the same ice-cold buffer used during homogenization and assay of the enzyme preparation. The adrenals are decapsulated to obtain the glomerulosa tissue. The tissue is homogenized in a glass homogenizer containing Tris assay buffer (8.5 mM MgCl2, 2.7 mM CaCl2, 3.13 mM KCl, 7.59 mM NaCl, 0.1% TEA and 50 mM Tris HCl adjusted to pH 7.4). The homogenate is diluted so that 37.5 mg of glomerulosa tissue is in each mL of buffer. […] The plates are scanned for radioactivity with a Bioscan System 200 Imaging Scanner (Bioscan, Ish. DC). The two products of the aldosterone synthase, 18-OH-corticosterone and aldosterone are scraped and counted in a liquid scintillation counter (Beckman LS6000TA, Beckman Instr., Palo Alto, Calif.).
The IC50s are determined from a logit-log plot (pseudo-Hill plot) according to the equation (see Pratt and Taylor, Eds, “Principles of Drug Action”, Churchill Livingstone Inc, NY (1990)): log P/(100−P)=n log[I][…] where P is the percent competition of specific binding in the presence of a given concentration of inhibitor (I). The slope (Hill Coefficient) and x intercept (IC50) are determined by linear regression of the experimental data. The Km(app) is calculated by a computer program according to the Hanes equation (see Cornish-Bowden, Ed., “Principles of Enzyme Kinetics”, Butterworth & Co., Boston, Mass. (1976)): s/v=Km/V+s/V where Km=Michaelis constant, V=maximum velocity, s=substrate concentration, v=velocity.

| SMILES | pIC50 |
| --- | --- |
| N#Cc1ccc(C2C(=O)N(Cc3ccccc3)Cc3cncn32)cc1 (centres unmarked) [Example 3, 4-(7-Benzyl-6-oxo-5,6,7,8-tetrahydro-imidazo[1,5-a]pyrazin-5-yl)-benzonitrile] | ~8.40 |
| N#Cc1ccc(C2C(=O)N(CC3CC3)Cc3cncn32)cc1 (centres unmarked) [Example 1, 4-(7-Cyclopropylmethyl-6-oxo-5,6,7,8-tetrahydro-imidazo[1,5-a]pyrazin-5-yl)-benzonitrile] | ~7.92 |
| Cl.O=C1C(c2cccc(Br)c2)n2cncc2CN1CC1CC1 (centres unmarked) [Example 32, 5-(3-Bromo-phenyl)-7-cyclopropylmethyl-7,8-dihydro-imidazo[1,5-a]pyrazin-6-one hydrochloride] | ~8.05 |
